How the values were obtained:
[1] = test system: Rev-mediated export of viral RNA; assay: HIV reporter system (MS2-GFP) in HeLa cells: Rev-mediated export of viral RNA; type: cell-based; conditions: in the absence of Rev, data not shown
Description: FIG. 8. Compound 1 influences Rev-mediated HIV RNA biogenesis and export. A) Schematic representation of the HIV-1 reporter gene B) Visualization of GFP-MS2-Bound RNA in HeLa cells expressing tat, MS2-GFP and HIV-reporter transcripts in non transfected or transfected cells with Rev. Rev-transfected cells were untreated (DMSO) or treated with Compound 1. Arrow indicates transcription site. C) Quantitation of images corresponding to untreated (DMSO) or treated (Compound 1) in (B), in terms of: total GFP (upper panel) expressed in RFU or Relative Fluorescence Units; in the nucleoplasm (middle panel) expressed in Number of Foci in Rev-transfected cells; or at the start site (lower panel) expressed as a percentage of nuclei with a starting transcription point. Box-plots show the average GFP intensity (foci numbers or starting transcription point numbers) of Rev-transfected HeLa cells for each condition. Whiskers correspond to the minimum and maximum, boxes, to the 25-75 percentiles and the band inside the box, to the median. […]
Cells plated on cover slips were fixed for 10 min in 3.7% formaldehyde (in PBS) followed by a 2-min permeabilization with 0.1% Triton X-100 (in PBS) and incubation in PBS containing 0.1% bovine serum albumin. […] Cells were washed in PBS mounted with DAKO mounting medium and observed under the fluorescence microscope. […]

primary macrophages = assay: Cell viability of primary macrophages under treatment; type: cell-based, human; conditions: data not shown

FC(F)(F)Oc1ccc(Nc2ccc3cccc(Cl)c3n2)cc1 [Compound 1, 8-chloro-N-(4-(trifluoromethoxy)phenyl)quinolin-2-amine]
effect on reporter cells [1]: no effect | cell viability (primary macrophages): not decreased
